Assay results published in patent US10864159B2, “Method and composition for treating ocular hypertension and glaucoma” (Santen Pharmaceutical Co., Ltd., priority 2008, dated 2020).

Assay: Absorption of preservative-free tafluprost to low density polyethylene containers, remaining concentration by HPLC
Format: physicochemical
Details: LDPE unit dose container, 20 weeks at 5° C., 25° C. and 40° C.
Protocol: The effect of nonionic surfactant on the absorption of preservative-free tafluprost to low density polyethylene containers was studied for 20 weeks at 5° C., 25° C. and 40° C. Three different polysorbate 80 (Tween 80) concentrations, namely 0.05%, 0.075% and 0.1% were used. The composition of the preservative-free aqueous tafluprost formulation except polysorbate 80 was 0.0015% tafluprost, 2.25% glycerol, 0.2% sodium dihydrogen phosphate dihydrate, 0.05% disodium edetate and sodium hydroxide and/or hydrochloric acid to adjust the pH to 5.0-6.7. 0.3 ml of the composition prepared above was filled in the body part of the unit dose container (LDPE) and sealed by heating with the upper part of the container (LDPE). The inner volume of the unit dose container was ca. 1 ml. The container was packaged into paper coated aluminium-polyethylene foil and stored in refrigerator or incubator. The remaining concentration of tafluprost was measured by HPLC.

CC(C)OC(=O)CCC/C=C\C[C@@H]1[C@@H](/C=C/C(F)(F)COc2ccccc2)[C@H](O)C[C@@H]1O [tafluprost]
absorption of tafluprost to polyethylene (polysorbate 80 0.05 to 0.1%): inhibits the absorption of tafluprost
absorption of tafluprost to polyethylene (polysorbate 80 0.075 to 0.1%): good inhibition effect of absorption of tafluprost
